According to patent US20130237602A1, “VALPROIC ACID DRUG DELIVERY SYSTEMS AND INTRAOCULAR THERAPEUTIC USES THEREOF” (ALLERGAN, INC., priority 2009, published 2013):

What was measured:
[1] = cited from earlier work
[2] = system: Sod1tm1Leb/J mouse retina; format: in vivo, mice; conditions: 250 mg/kg IP once daily from three days before paraquat; 0.75 mM intravitreal paraquat; ERG days 1 and 7; n=4
Excerpt: In furtherance of the in vitro results of Example 1 we carried out an in vivo experiment examining the ability of valproic acid to protect against oxidative insult (oxidative stress) to mammalian retina. We used a murine model in which oxidative stress is induced by pre-dosing with intravitreal paraquat in Sod1^tm1Leb/J mouse model (as set forth in Dong A., et al., Superoxide Dismutase 1 Protects Retinal Cells From Oxidative Damage, J Cell Physio 208:516-526, 2006).
C57BL6 mice heterozygous from the SOD1 gene were obtained from Jackson labs (strain B6;129S7-Sod1tm1Leb/J). The mice were 3-4 months of age at the time of the experiment. […]
ERG recording were measured on dark adapted animals on days 1 and 7 post paraquat injection using an Espion ERG Diagnosys system and Burian-Allen electrodes, 3.0 mm diameter from LKC Technologies, Inc. For ERG recordings mice were anesthetized with ketamine (100 mg/kg) plus xylazine (50 mg/kg) administered IP and pupils dilated with 1% Akpentolate (cyclopentolate hydrochloride) and 10% AK-Dilate (phenylephrine hydrochloride). […] Scotopic ERGs were recorded using a 0.001, 0.01, and 1 cd·s/m2 flash as well as a 20 Hz flicker with the animal on a heating pad. A-wave, B-wave amplitudes were then calculated and statistically significant changes between valproic treated and non-treated animals determined using T test, n=4.

visual system = conditions: systemic administration to mammals (Goto et al. 2003, rats); cited from earlier work

SMILES	water solubility [1]	effect on paraquat induced decrease in ERG B-wave amplitude [2]	effect on ERG a- and b-wave amplitudes and VEP (visual system)
CCCC(CCC)C(=O)[O-].[Na+] [sodium valproate]	highly water soluble		
CCCC(CCC)C(=O)O [valproic acid, 2-propylpentanoic acid]		significantly inhibited paraquat induced decrease in B-wave amplitude	suppress ERG a- and b-wave amplitudes as well as VEP
